Each block holds one compound with its values, some of them ahead of it.
Columns and labels:
[1] = target: Serine/threonine-protein kinase pim-2 (Homo sapiens, UniProt Q9P1W9); details: at 10 µM
[2] = target: BMP-2-inducible protein kinase (Homo sapiens) (UniProt Q9NSY1); test: Selectivity interaction (Ambit KINOMEscan and KiNATiv profiling in Jurkat cells) EUB0000090b BMP2K; type: cell-based; details: at 1 µM
[3] = target: Serine/threonine-protein kinase MARK2 (Homo sapiens) (UniProt Q7KZI7); test: Selectivity interaction (Ambit KINOMEscan and KiNATiv profiling in Jurkat cells) EUB0000090b MARK2; type: cell-based; details: at 1 µM
[4] = target: T1, MAP/microtubule affinity-regulating kinase 4 (Homo sapiens) (UniProt Q96L34); test: Selectivity interaction (ActivX KiNativ screen (kinase selectivity in THP-1 cell lysates)) EUB0000639a MARK4; type: subcellular; details: lysate, at 0.04 µM
T1 sequence (whole entry): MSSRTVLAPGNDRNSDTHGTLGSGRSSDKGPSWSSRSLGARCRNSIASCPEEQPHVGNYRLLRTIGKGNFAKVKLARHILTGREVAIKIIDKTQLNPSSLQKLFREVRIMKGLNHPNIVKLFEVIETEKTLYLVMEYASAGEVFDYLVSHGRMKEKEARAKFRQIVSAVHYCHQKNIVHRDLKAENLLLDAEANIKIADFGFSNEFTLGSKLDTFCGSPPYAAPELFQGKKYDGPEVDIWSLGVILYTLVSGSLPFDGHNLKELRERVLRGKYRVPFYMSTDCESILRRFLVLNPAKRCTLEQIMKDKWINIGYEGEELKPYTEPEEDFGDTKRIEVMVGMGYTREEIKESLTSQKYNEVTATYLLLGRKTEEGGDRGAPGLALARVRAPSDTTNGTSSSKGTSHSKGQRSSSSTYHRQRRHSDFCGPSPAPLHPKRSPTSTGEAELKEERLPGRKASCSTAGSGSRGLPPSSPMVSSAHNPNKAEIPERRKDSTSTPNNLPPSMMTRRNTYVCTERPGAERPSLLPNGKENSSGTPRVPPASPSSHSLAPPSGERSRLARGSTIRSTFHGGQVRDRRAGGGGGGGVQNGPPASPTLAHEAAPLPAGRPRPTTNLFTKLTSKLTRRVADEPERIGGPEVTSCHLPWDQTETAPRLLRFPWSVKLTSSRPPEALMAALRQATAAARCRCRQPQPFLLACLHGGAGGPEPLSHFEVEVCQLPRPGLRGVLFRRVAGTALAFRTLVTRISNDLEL

[5] = target: Transcription initiation factor TFIID subunit 1 (Homo sapiens) (UniProt P21675); test: Selectivity interaction (Bromodomain panel (DSF asssay)) EUB0000270b TAF1
[6] = target: Serine/threonine-protein kinase pim-1 (Homo sapiens, UniProt P11309); test: Selectivity interaction (KinomeScan (DiscoverX)) EUB0000229b PIM1; details: at 10 µM
[7] = target: Muscarinic acetylcholine receptor M4 (Homo sapiens) (UniProt P08173); test: Selectivity interaction (GPCR panel (PDSP screen)) EUB0001079a CHRM4; details: at 10 µM
[8] = target: Ribosomal protein S6 kinase alpha-2 (Homo sapiens) (UniProt Q15349); test: Selectivity interaction (KinomeScan (DiscoverX)) EUB0000092b RPS6KA2; details: at 10 µM
[9] = target: T2, Mitogen-activated protein kinase 13 (Homo sapiens) (UniProt O15264); test: Selectivity interaction (KinomeScan (DiscoverX)) EUB0000607a MAPK13; details: at 10 µM
T2 sequence (whole entry): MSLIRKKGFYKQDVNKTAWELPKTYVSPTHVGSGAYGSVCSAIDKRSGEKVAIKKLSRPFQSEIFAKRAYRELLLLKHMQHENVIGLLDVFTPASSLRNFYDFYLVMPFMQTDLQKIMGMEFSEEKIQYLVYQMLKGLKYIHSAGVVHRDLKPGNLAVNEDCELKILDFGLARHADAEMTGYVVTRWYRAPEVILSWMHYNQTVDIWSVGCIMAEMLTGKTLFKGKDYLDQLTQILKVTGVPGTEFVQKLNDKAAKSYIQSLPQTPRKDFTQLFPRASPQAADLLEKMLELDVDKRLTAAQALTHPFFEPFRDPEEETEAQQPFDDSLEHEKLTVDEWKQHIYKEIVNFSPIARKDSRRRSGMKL

[10] = target: Calcium/calmodulin-dependent protein kinase type 1G (Homo sapiens) (UniProt Q96NX5); test: Selectivity interaction (KinomeScan (DiscoverX)) EUB0000666a CAMK1G; details: at 10 µM
Calcium/calmodulin-dependent protein kinase type 1G (Homo sapiens), sequence (Q96NX5 whole entry): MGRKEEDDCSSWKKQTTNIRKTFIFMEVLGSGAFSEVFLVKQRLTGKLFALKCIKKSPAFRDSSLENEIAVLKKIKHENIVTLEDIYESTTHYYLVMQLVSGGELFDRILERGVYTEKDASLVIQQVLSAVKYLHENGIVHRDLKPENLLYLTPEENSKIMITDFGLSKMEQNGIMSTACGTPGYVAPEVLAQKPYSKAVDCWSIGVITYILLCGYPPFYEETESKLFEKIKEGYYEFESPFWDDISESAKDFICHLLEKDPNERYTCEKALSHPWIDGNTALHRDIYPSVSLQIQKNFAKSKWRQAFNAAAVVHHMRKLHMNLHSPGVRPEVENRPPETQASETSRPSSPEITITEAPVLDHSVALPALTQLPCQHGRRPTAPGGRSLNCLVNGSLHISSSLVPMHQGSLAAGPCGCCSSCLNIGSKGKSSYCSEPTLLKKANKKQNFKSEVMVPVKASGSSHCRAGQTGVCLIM

Muscarinic acetylcholine receptor M4 (Homo sapiens), sequence (P08173 whole entry): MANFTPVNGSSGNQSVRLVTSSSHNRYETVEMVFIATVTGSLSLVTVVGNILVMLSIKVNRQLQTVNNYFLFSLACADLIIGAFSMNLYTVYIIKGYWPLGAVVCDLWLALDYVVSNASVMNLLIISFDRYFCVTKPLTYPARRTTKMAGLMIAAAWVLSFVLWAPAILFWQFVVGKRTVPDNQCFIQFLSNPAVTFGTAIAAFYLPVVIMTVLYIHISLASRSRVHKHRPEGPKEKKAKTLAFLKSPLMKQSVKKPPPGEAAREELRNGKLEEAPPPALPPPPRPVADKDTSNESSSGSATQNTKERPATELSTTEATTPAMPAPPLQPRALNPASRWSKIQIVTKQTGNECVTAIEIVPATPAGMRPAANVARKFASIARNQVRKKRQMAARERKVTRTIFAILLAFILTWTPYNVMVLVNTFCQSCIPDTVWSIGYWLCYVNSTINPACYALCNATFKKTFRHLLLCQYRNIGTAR
Ribosomal protein S6 kinase alpha-2 (Homo sapiens), sequence (Q15349 whole entry): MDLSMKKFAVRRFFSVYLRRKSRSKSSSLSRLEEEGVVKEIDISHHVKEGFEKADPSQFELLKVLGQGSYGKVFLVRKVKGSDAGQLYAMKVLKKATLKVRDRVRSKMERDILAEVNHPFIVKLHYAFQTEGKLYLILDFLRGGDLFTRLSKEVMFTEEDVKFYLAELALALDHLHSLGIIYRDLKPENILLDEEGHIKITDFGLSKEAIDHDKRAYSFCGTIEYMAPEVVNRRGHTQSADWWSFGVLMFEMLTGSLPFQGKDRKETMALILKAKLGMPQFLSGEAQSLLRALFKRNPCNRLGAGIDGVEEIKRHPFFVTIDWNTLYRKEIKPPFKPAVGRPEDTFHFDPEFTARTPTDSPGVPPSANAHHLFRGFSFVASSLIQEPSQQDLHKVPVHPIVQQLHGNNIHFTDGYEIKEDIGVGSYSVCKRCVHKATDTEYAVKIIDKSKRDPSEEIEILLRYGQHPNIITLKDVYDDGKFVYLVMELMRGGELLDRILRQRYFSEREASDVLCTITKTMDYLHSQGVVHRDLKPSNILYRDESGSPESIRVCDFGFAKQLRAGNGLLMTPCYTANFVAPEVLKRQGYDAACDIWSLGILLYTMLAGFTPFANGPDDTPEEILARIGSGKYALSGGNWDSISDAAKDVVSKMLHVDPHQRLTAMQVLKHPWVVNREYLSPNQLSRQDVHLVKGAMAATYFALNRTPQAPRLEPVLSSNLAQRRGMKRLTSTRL
Serine/threonine-protein kinase pim-1, sequence (P11309 whole entry, looked up): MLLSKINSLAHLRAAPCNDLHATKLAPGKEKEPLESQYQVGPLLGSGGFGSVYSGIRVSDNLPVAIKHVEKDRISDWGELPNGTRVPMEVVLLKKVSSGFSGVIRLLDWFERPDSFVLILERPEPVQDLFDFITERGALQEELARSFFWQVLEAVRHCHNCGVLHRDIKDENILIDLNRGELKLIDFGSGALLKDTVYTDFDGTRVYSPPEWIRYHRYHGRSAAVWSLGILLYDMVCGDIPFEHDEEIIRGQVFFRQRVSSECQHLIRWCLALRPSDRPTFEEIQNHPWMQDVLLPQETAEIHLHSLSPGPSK
Serine/threonine-protein kinase MARK2 (Homo sapiens), sequence (Q7KZI7 whole entry): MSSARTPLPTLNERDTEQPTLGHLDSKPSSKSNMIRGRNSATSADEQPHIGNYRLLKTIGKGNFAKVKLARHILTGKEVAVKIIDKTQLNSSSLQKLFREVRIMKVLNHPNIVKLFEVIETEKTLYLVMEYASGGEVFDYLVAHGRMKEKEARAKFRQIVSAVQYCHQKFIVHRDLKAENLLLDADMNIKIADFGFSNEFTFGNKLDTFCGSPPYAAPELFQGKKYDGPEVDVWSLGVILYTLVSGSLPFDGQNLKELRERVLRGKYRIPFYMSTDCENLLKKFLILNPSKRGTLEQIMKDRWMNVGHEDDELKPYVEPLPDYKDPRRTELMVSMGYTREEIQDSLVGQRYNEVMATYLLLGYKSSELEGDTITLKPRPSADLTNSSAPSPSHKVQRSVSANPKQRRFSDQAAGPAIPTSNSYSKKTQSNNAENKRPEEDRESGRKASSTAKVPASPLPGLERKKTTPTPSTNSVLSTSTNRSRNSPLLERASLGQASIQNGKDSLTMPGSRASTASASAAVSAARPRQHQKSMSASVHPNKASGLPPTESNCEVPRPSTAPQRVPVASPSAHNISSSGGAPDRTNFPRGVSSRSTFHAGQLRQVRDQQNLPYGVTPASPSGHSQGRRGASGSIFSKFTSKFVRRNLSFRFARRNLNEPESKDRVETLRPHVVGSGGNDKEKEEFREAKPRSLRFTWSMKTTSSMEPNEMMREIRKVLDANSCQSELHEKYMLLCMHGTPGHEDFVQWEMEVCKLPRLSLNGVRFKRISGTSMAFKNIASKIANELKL
Serine/threonine-protein kinase pim-2, sequence (Q9P1W9 whole entry, looked up): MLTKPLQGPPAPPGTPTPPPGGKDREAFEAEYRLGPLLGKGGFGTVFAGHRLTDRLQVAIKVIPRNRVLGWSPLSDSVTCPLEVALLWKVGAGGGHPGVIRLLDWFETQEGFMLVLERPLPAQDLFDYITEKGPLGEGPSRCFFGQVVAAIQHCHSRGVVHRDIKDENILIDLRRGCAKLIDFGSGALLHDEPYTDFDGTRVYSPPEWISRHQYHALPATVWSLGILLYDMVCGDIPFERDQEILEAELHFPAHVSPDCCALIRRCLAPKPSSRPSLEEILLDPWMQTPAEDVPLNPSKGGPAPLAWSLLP
BMP-2-inducible protein kinase (Homo sapiens), sequence (Q9NSY1 whole entry, looked up): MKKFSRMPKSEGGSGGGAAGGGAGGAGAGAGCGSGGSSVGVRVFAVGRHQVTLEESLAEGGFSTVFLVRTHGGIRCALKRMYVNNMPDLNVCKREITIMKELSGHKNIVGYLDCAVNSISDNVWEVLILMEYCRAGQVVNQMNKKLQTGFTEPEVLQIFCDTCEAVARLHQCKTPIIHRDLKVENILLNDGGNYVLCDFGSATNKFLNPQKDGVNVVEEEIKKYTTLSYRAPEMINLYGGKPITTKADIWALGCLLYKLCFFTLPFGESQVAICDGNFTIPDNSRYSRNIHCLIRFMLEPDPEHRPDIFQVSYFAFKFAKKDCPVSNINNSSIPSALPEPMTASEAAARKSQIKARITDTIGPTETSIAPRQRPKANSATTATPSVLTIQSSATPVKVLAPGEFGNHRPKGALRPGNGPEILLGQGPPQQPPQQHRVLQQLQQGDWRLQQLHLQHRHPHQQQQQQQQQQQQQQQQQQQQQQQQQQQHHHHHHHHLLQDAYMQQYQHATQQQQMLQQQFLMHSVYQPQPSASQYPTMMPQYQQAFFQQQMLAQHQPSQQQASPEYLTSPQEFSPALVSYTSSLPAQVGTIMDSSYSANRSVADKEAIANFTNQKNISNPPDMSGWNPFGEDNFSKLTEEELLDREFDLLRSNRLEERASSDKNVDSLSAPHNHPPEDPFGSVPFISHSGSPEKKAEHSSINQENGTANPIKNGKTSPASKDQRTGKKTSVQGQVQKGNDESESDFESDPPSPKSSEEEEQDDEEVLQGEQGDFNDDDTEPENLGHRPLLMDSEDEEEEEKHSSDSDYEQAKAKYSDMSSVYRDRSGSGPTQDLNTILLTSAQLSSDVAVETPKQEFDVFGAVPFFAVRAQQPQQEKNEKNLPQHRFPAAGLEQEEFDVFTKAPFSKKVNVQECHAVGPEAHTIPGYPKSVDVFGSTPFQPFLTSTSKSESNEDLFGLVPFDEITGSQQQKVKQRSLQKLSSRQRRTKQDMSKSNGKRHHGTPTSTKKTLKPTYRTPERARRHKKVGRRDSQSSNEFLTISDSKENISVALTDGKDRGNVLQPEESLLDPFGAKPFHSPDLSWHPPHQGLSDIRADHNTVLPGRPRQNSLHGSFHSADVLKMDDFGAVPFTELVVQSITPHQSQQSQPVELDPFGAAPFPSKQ

SMILES: Cc1cc([C@@H](C)Nc2ccccc2C(=O)O)c2nc(N3CCOCC3)cc(=O)n2c1 [AZD-6482]
% of control [1]: 70%

SMILES: CN(C)C/C=C/C(=O)Nc1ccc(C(=O)N2CCCC(Nc3ncc(Cl)c(-c4c[nH]c5ccccc45)n3)C2)cc1 (stereo not given)
% of control [2]: 100%
% of control [3]: 78%

% of inhibition [4]: 15.9%
SMILES: CC[C@@H]1[C@H](F)C(=O)N[C@@H]1COc1nccc2cc(C(N)=O)c(OC)cc12 [ZIMLOVISERTIB]

dTM [5]: -1.15 K
SMILES: Cc1cc(CN)cc(C)c1-c1ncn(C)c1-c1cncn1C

SMILES: COc1cc(N(C)c2ccnc3ccc(C(F)(F)F)cc23)cc(OC)c1OC
% binding [6]: 69%

SMILES: Nc1cnc(N2CCc3cc(S(=O)(=O)Nc4c(F)cc(Cl)cc4F)cc(N4CCCC4=O)c32)nc1 [TP-020n]
% of inhibition [7]: 9.99%

SMILES: CCC(=O)N1CCN(c2ccc(-n3c(=O)ccc4cnc5ccc(-c6cnc7ccccc7c6)cc5c43)cc2C(F)(F)F)CC1
% of control [8]: 85%

SMILES: CNC(=O)Nc1ccc(-c2nc(N3CC4CCC(C3)O4)c3cnn(C4CCC5(CC4)OCCO5)c3n2)cc1
% of control [9]: 16%

SMILES: O=C(NOC[C@H](O)CO)c1ccc(F)c(F)c1Nc1ccc(I)cc1F
% of control [10]: 100%

Reference: ChEMBL document CHEMBL5465560, “Selectivity Literature for EUbOPEN Chemogenomic Library” (2024)
